US7414068B2, “Benzopyran derivatives substituted with secondary amines including tetrazole, method for the preparation thereof and pharmaceutical compositions containing them” (Dongbu Hannong Chemical Co., Ltd., priority 2002, dated 2008)

How the values were obtained:
retina ganglion cell = experiment: Protective effect on neuronal cells damage by axotomy of optic nerve; assay type: in vivo, rat; settings: 20 μM, injected vitreously, after axotomy of optic nerve
Protocol: Test compounds were dissolved in DMSO to prepare stock solution (100 mM), which was diluted with physiological saline to the 20 μM. 10 μl of […] was injected vitreously.
Adult rats were anesthetized with chloral hydrate (400 mg/Kg), then optic nerve was exposed by bulbar conjunctiva. Thereafter, nerve corresponding to 0.5 mm or 3 mm from eye ball was excided, respectively. Or through upper eyelid cutaneous amputation was accomplished, then part of lacrimal gland was removed. […] The optic nerve was excised about 5 mm back from eye ball. Blood vessels of retina supplying blood to retina was not impaired. Condition of blood vessels of retina was checked with funduscope. Fluorogold (Fluorochrome Inc. 5% in PBS (phosphate buffered solution) was administrated to Half of test group, in the retrograde after axotomy of optic nerve. To investigate cell survival of the ganglion after axotomy, eyes was removed from rats, then retina was isolated in 3 days, 1 week, 2 weeks, 4 weeks, 2 months, 4 months, and 6 months. The isolated retina was investigated by transmission electron microscope. For quantitative analysis, at the same time tissue of retina was prepared. The prepared tissue was investigated by immunochemical dyeing or fluorescent microscope to which 530˜560 nm filter was installed.

cortical neuron cells = experiment: Protective effect on iron-induced neuronal cell injury (LDH release); assay type: cell-based; settings: FeSO4 50 μM; for IC50: LDH
Summary of the method: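 Embryonic (day 17–18) cortical neurons cultured 7–9 days, serum lowered to 0.2%, pretreated 30 min with compound (DMSO ≤0.1%), then exposed to 50 μM FeSO4 for 24 h. LDH released to medium measured; protection expressed as LDH reduction versus vehicle control.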

[1] = tested on: isolated ischemic rat heart; experiment: Cardioprotective effect in ischemic heart models of rats (Langendorff); settings: 10 μM
Summary of the method: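 Langendorff-perfused male rat hearts (Krebs-Henseleit, 85 mmHg, 37 °C) pretreated 10 min with compound or vehicle (0.04% DMSO), then 30 min global ischemia and 30 min reperfusion. Read-outs: LVDP, HR, CF, rate-pressure product, time to contracture (first 5 mmHg EDP rise), LDH release.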

## COC(OC)[C@@]1(C)Oc2ccc(N)cc2[C@H](N(Cc2nnn(C)n2)c2ccc(Cl)cc2)[C@H]1O [Example 11, (2S,3R,4S)-6-amino-4-[N-(4-chlorophenyl)-N-(2-methyl-2H-tetrazol-5-ylmethyl)amino]-3-hydroxy-2-methyl-2-dimethoxymethyl-3,4-dihydro-2H-1-benzopyran]
Retina ganglion cell
  Survival of the ganglion cell(%): 43%
Retina ganglion cell; listed as compound of formula 11
  Survival of the ganglion cell(%): 43%
Cortical neuron cells; 30 μM compound, 24 hours, LDH reduction vs control
  protective effect on neuron cell: Inhibition (%, 30 μM compound addition): 93%
Cortical neuron cells; Cortical neurone, 24 h
  IC50: < 2000 nM
Cortical neuron cells; 24 hours
  IC50: 2000 nM
[1]; after 30 min global ischemia and reperfusion
  EDP (mmHg): 47.6 mmHg
[1]; reperfusion LDH release
  LDH (u/g): 16.5 u/g
[1]; reperfusion, % of pre-treatment DP
  LVDP X HR (%): 24.8%
[1]; time to contracture during global ischemia
  TTC: 19.9 min
